Data reported in US20240174618A1, “SUBSTITUTED (2-HETEROARYLOXYPHENYL)SULFONATES, SALTS THEREOF AND THEIR USE AS HERBICIDAL AGENTS” (Bayer Aktiengesellschaft, priority 2021, published 2024).

What was measured:
Assay type in all cases: in vivo
Veronica persica (VERPE) = test: E. Herbicidal post-emergence efficacy, VERPE
Summary of the method: (§1)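 Greenhouse weeds were treated post-emergence at the one-leaf stage, 2-3 weeks after sowing in sandy loam, with WP or EC formulations sprayed as aqueous suspension/emulsion plus 0.5% additive at 600 l/ha, at 320 g/ha or less. Efficacy was rated visually after about 3 weeks versus untreated controls (100% = dead, 0% = like control).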

[1] = test system: Echinochloa crus-galli (ECHCG); test: B. Herbicidal post-emergence efficacy, ECHCG; details: rated visually after about 3 weeks
Summary of the method: (§2)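 First, seeds were sown in sandy loam and grown 2 to 3 weeks under controlled greenhouse conditions. Next, foliage at the one-leaf stage received the formulated compound in water with 0.5% additive (600 L/ha, 1280 g/ha or less). Finally, damage was rated visually after about 3 weeks against untreated plants.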

[2] = test system: Abutilon theophrasti (ABUTH); test: E. Herbicidal post-emergence efficacy, ABUTH
Summary of the method: as §1

Setaria viridis (SETVI) = test: E. Herbicidal post-emergence efficacy, SETVI
Description: Seeds of monocotyledonous and dicotyledonous weeds and crop plants were placed in sandy loam in plastic or organic planting pots, covered with soil and cultivated in a greenhouse under controlled growth conditions. 2 to 3 weeks after sowing, the test plants were treated at the one-leaf stage. The compounds of the invention, formulated in the form of wettable powders (WP) or as emulsion concentrates (EC), were then sprayed onto the green parts of the plants as aqueous suspension or emulsion with addition of 0.5% additive at a water application rate of 600 l/ha (converted). After the test plants had been kept in the greenhouse under optimum growth conditions for about 3 weeks, the activity of the preparations was rated visually in comparison to untreated controls.
For example, • 100% efficacy=plants have died, • 0% action=like untreated control plants.
Tables E1a to E12b below show the effects of selected compounds of the general formula (I) according to table 1 on various harmful plants at an application rate corresponding to 320 g/ha or less, which were obtained by the experimental procedure mentioned above.

Kochia scoparia (KCHSC) = test: B. Herbicidal post-emergence efficacy, KCHSC; details: for Post-emergence efficacy against KCHSC: 1280 g/ha; for Post-emergence efficacy against KCHSC in %: rated visually after about 3 weeks
Summary of the method: as §2

[3] = test system: Digitaria sanguinalis (DIGSA); test: A. Herbicidal pre-emergence efficacy, DIGSA; details: scored visually after about 3 weeks vs untreated controls
Summary of the method: (§3)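 Pre-emergence soil-surface spray in sandy loam pots, WP/EC in water plus 0.5% additive, 600 L/ha. Visual % damage rating after about 3 weeks in greenhouse vs. untreated; 0% = control-like, 100% = dead plants. Rates up to 1280 g/ha.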

[4] = test system: Alopecurus myosuroides (ALOMY); test: A. Herbicidal pre-emergence efficacy, ALOMY; details: 1280 g/ha; scored visually after about 3 weeks vs untreated controls
Summary of the method: as §3

O=S(=O)(CCl)Oc1ccccc1Oc1ncc(Cl)cn1 [Example I-9]
Post-emergence efficacy against VERPE in % (Veronica persica (VERPE); application rate 80 g/ha): 80% | Post-emergence efficacy against VERPE in % (Veronica persica (VERPE); application rate 320 g/ha): 90% | Post-emergence efficacy against ECHCG in % ([1]; 1280 g/ha): 90% | Post-emergence efficacy against ABUTH in % ([2]; application rate 80 g/ha): 80% | Post-emergence efficacy against ABUTH in % ([2]; application rate 320 g/ha): 80% | Post-emergence efficacy against SETVI in % (Setaria viridis (SETVI); application rate 320 g/ha): 100% | Post-emergence efficacy against KCHSC (Kochia scoparia (KCHSC)): 90%

Cc1cccc(OS(=O)(=O)CCCCl)c1Oc1ncc(Cl)cn1 [Example I-12]
Post-emergence efficacy against VERPE in % (Veronica persica (VERPE); application rate 80 g/ha): 100% | Post-emergence efficacy against VERPE in % (Veronica persica (VERPE); application rate 320 g/ha): 100% | Post-emergence efficacy against ABUTH in % ([2]; application rate 320 g/ha): 90% | Post-emergence efficacy against SETVI in % (Setaria viridis (SETVI); application rate 320 g/ha): 90% | Post-emergence efficacy against KCHSC (Kochia scoparia (KCHSC)): 90%

O=S(=O)(CCCCl)Oc1cccc(F)c1Oc1ncc(Cl)cn1 [Example I-13]
Pre-emergence efficacy against DIGSA ([3]; 1280 g/ha): 100% | Post-emergence efficacy against VERPE in % (Veronica persica (VERPE); application rate 320 g/ha): 90% | Post-emergence efficacy against ECHCG in % ([1]; 1280 g/ha): 90% | Post-emergence efficacy against KCHSC in % (Kochia scoparia (KCHSC); 320 g/ha): 90% | Post-emergence efficacy against KCHSC (Kochia scoparia (KCHSC)): 100%

CCS(=O)(=O)Oc1ccccc1Oc1ncc(Cl)cn1 [Example I-16]
Pre-emergence efficacy against DIGSA ([3]; 320 g/ha): 100% | Pre-emergence efficacy against DIGSA ([3]; 1280 g/ha): 100% | Post-emergence efficacy against ECHCG in % ([1]; 1280 g/ha): 90% | Post-emergence efficacy against KCHSC in % (Kochia scoparia (KCHSC); 80 g/ha): 90% | Post-emergence efficacy against KCHSC in % (Kochia scoparia (KCHSC); 320 g/ha): 100% | Post-emergence efficacy against KCHSC (Kochia scoparia (KCHSC)): 100%

CCCCCS(=O)(=O)Oc1ccccc1Oc1ncc(Cl)cn1 [Example I-24]
Pre-emergence efficacy against DIGSA ([3]; 320 g/ha): 100% | Pre-emergence efficacy against DIGSA ([3]; 1280 g/ha): 100% | Post-emergence efficacy against VERPE in % (Veronica persica (VERPE); application rate 80 g/ha): 90% | Post-emergence efficacy against VERPE in % (Veronica persica (VERPE); application rate 320 g/ha): 100% | Post-emergence efficacy against ECHCG in % ([1]; 1280 g/ha): 100% | Post-emergence efficacy against ABUTH in % ([2]; application rate 320 g/ha): 90% | Post-emergence efficacy against SETVI in % (Setaria viridis (SETVI); application rate 320 g/ha): 100% | Post-emergence efficacy against KCHSC in % (Kochia scoparia (KCHSC); 80 g/ha): 90% | Post-emergence efficacy against KCHSC in % (Kochia scoparia (KCHSC); 320 g/ha): 100% | Post-emergence efficacy against KCHSC (Kochia scoparia (KCHSC)): 100%

CC(C)CCS(=O)(=O)Oc1ccccc1Oc1ncc(Cl)cn1 [Example I-25]
Pre-emergence efficacy against DIGSA ([3]; 80 g/ha): 90% | Pre-emergence efficacy against DIGSA ([3]; 320 g/ha): 100% | Pre-emergence efficacy against DIGSA ([3]; 1280 g/ha): 100% | Post-emergence efficacy against VERPE in % (Veronica persica (VERPE); application rate 80 g/ha): 90% | Post-emergence efficacy against VERPE in % (Veronica persica (VERPE); application rate 320 g/ha): 100% | Post-emergence efficacy against ECHCG in % ([1]; 320 g/ha): 90% | Post-emergence efficacy against ECHCG in % ([1]; 1280 g/ha): 100% | Post-emergence efficacy against ABUTH in % ([2]; application rate 320 g/ha): 80% | Post-emergence efficacy against SETVI in % (Setaria viridis (SETVI); application rate 320 g/ha): 100% | Post-emergence efficacy against KCHSC in % (Kochia scoparia (KCHSC); 80 g/ha): 90% | Post-emergence efficacy against KCHSC in % (Kochia scoparia (KCHSC); 320 g/ha): 100% | Post-emergence efficacy against KCHSC (Kochia scoparia (KCHSC)): 100%

Cc1cccc(Oc2ncc(Cl)cn2)c1OS(=O)(=O)CCCC(F)(F)F [Example I-28, 2-[(5-Chloropyrimidin-2-yl)oxy]-6-methylphenyl 4,4,4-trifluorobutane-1-sulfonate]
Pre-emergence efficacy against ALOMY [4]: 100% | Pre-emergence efficacy against DIGSA ([3]; 80 g/ha): 90% | Pre-emergence efficacy against DIGSA ([3]; 320 g/ha): 100% | Pre-emergence efficacy against DIGSA ([3]; 1280 g/ha): 100% | Post-emergence efficacy against ECHCG in % ([1]; 320 g/ha): 90% | Post-emergence efficacy against ECHCG in % ([1]; 1280 g/ha): 100% | Post-emergence efficacy against KCHSC in % (Kochia scoparia (KCHSC); 320 g/ha): 90% | Post-emergence efficacy against KCHSC (Kochia scoparia (KCHSC)): 100%

O=S(=O)(CCCC(F)(F)F)Oc1c(Br)cccc1Oc1ncc(Cl)cn1 [Example I-30]
Pre-emergence efficacy against DIGSA ([3]; 320 g/ha): 100% | Pre-emergence efficacy against DIGSA ([3]; 1280 g/ha): 100% | Post-emergence efficacy against ECHCG in % ([1]; 320 g/ha): 90% | Post-emergence efficacy against ECHCG in % ([1]; 1280 g/ha): 90% | Post-emergence efficacy against KCHSC in % (Kochia scoparia (KCHSC); 80 g/ha): 100% | Post-emergence efficacy against KCHSC in % (Kochia scoparia (KCHSC); 320 g/ha): 100% | Post-emergence efficacy against KCHSC (Kochia scoparia (KCHSC)): 100%

O=S(=O)(CCC(F)(F)F)Oc1c(Br)cccc1Oc1ncc(Cl)cn1 [Example I-31]
Pre-emergence efficacy against ALOMY [4]: 90% | Pre-emergence efficacy against DIGSA ([3]; 320 g/ha): 90% | Pre-emergence efficacy against DIGSA ([3]; 1280 g/ha): 100% | Post-emergence efficacy against ECHCG in % ([1]; 1280 g/ha): 100% | Post-emergence efficacy against KCHSC in % (Kochia scoparia (KCHSC); 80 g/ha): 90% | Post-emergence efficacy against KCHSC in % (Kochia scoparia (KCHSC); 320 g/ha): 100% | Post-emergence efficacy against KCHSC (Kochia scoparia (KCHSC)): 100%

O=S(=O)(CCCC(F)(F)F)Oc1c(Cl)cccc1Oc1ncc(Br)cn1 [Example I-34]
Pre-emergence efficacy against DIGSA ([3]; 1280 g/ha): 90% | Post-emergence efficacy against VERPE in % (Veronica persica (VERPE); application rate 80 g/ha): 100% | Post-emergence efficacy against VERPE in % (Veronica persica (VERPE); application rate 320 g/ha): 100% | Post-emergence efficacy against ECHCG in % ([1]; 320 g/ha): 90% | Post-emergence efficacy against ECHCG in % ([1]; 1280 g/ha): 90% | Post-emergence efficacy against ABUTH in % ([2]; application rate 80 g/ha): 80% | Post-emergence efficacy against ABUTH in % ([2]; application rate 320 g/ha): 80% | Post-emergence efficacy against SETVI in % (Setaria viridis (SETVI); application rate 80 g/ha): 90% | Post-emergence efficacy against SETVI in % (Setaria viridis (SETVI); application rate 320 g/ha): 90% | Post-emergence efficacy against KCHSC in % (Kochia scoparia (KCHSC); 80 g/ha): 100% | Post-emergence efficacy against KCHSC in % (Kochia scoparia (KCHSC); 320 g/ha): 100% | Post-emergence efficacy against KCHSC (Kochia scoparia (KCHSC)): 100%

C=CCS(=O)(=O)Oc1ccccc1Oc1ncc(Cl)cn1 [Example I-36]
Pre-emergence efficacy against DIGSA ([3]; 320 g/ha): 90% | Pre-emergence efficacy against DIGSA ([3]; 1280 g/ha): 100% | Post-emergence efficacy against VERPE in % (Veronica persica (VERPE); application rate 80 g/ha): 80% | Post-emergence efficacy against VERPE in % (Veronica persica (VERPE); application rate 320 g/ha): 100% | Post-emergence efficacy against KCHSC (Kochia scoparia (KCHSC)): 90%
